Assay results as given in patent US12725802B2, “Aqueous rechargeable battery including organic positive active material” (Seoul National University R&DB Foundation, priority 2021, dated 2026).
≈ marks a conversion by molar mass, not a printed value. Where two headings read alike, the source gives them in different places.

Key:
[1] = Visual observation of the solubility of DMPZ in various solvents (color change, naked eye); type: physicochemical; settings: FIG. 3; for solubility: organic solvent or mixture, read-out: solubility (concentration dissolved)
Text: DMPZ was respectively dissolved in various solvents, and color changes in the solutions were examined with the naked eye to evaluate dissolution degrees.

[2] = Analysis of solubility of positive active material in the electrolyte during cycle (electrode washed with new electrolyte, color; UV-visible spectroscopy); type: physicochemical; settings: FIG. 7
Method: Each cell of Comparative Example 1 and Examples 1 and 2 was checked regarding how much the positive active materials were dissolved when the electrodes were taken out during the charge and washed with a new electrolyte, and the results are shown in FIG. 7.
FIG. 8 is a graph quantitatively analyzing amounts of DMPZ dissolved in each electrolyte of Comparative Example 1 and Examples 1 and 2. The cycled DMPZ electrode was re-wetted in the electrolyte, and ultraviolet (UV)-visible ray spectroscopy was performed with respect to solutions in each of the DMPZ^+ and DMPZ^2+ states to measure areas of an absorption spectrum and thus obtain each amount of DMPZ^+ and DMPZ^2+ dissolved out in the electrolyte. In FIG. 8, a vertical axis indicates the DMPZ state according to SOC, while a horizontal axis indicates a weight change as solubility (%). In FIG. 8, Comparative Example 1 is shown on the right, Example 1 is in the middle, and Example 2 is on the left.

solubility ([1]; dimethyl carbonate (DMC)): ≥ 100 mM | solubility ([1]; propylene carbonate (PC)): ~20 mM (≈ 4.21 mg/mL) | solubility ([1]; tetraethylene glycol dimethyl ether (TEGDME)): ≥ 100 mM | solubility in the electrolyte during the cycles ([2]; Comparative Example 1 electrolyte: 1 M NaClO4 in TEGDME, DMPZ, DMPZ+ (SOC 50) and DMPZ2+ (SOC 100)): high solubility | solubility in the electrolyte during the cycles ([2]; Example 1 electrolyte: 1 m NaClO4 and 0.5 m Zn(CF3SO3)2 in water, charged DMPZ (DMPZ+, DMPZ2+)): slightly dissolved | solubility in the electrolyte during the cycles ([2]; Example 2 electrolyte: 17 m NaClO4 and 0.5 m Zn(CF3SO3)2 in water, DMPZ, DMPZ+ and DMPZ2+): not dissolved at all
SMILES: CN1c2ccccc2N(C)c2ccccc21 [DMPZ, 5,10-dihydro-5,10-dimethylphenazine]
solubility (dissolution) ([1]; water solvent): not dissolved in the water solvent at all
